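Values below derive from 48-hour exposures of cells grown in 96-well plates, with endpoints linearly interpolated between the two concentrations bracketing the appropriate inhibition level. TGI: total growth inhibition.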 Where a SMILES comes first, the peptide text is derived from it. [ ]: non-standard residue; d: D form. The star is where a group is joined. Octanoyl = CCCCCCCC(=O)*; Aib = CC(C)(N)C(=O)O; tBu = CC(C)(C)*
What was measured:
Assay in all cases: inhibition of tumour cell growth, NCI panel, 48 h
[1] = tested on: HOP-62 NSCLC
[2] = tested on: OVCAR-5 ovarian
[3] = tested on: T-47D breast
[4] = tested on: SN12C renal
[5] = tested on: HCC-2998 colon
[6] = tested on: SF-539 CNS
[7] = tested on: HOP-92 NSCLC
[8] = tested on: RXF 393 renal
[9] = tested on: CAKI-1 renal
[10] = tested on: OVCAR-3 ovarian
[11] = tested on: OVCAR-4 ovarian
[12] = tested on: RPMI-8226 leukemia
[13] = tested on: SF-268 CNS
[14] = tested on: HT29 colon
[15] = tested on: HS 578T breast

| Compound | TGI [1] | TGI [2] | TGI [3] | TGI [4] | TGI [5] | TGI [6] | TGI [7] | TGI [8] | TGI [9] | TGI [10] | TGI [11] | TGI [12] | TGI [13] | TGI [14] | TGI [15] |
| --- | --- | --- | --- | --- | --- | --- | --- | --- | --- | --- | --- | --- | --- | --- | --- |
| Cc1n[nH]c(=O)n1/N=C/c1c[nH]c2ccccc12 | > 100 µM | > 100 µM | > 100 µM | > 100 µM | > 100 µM | > 100 µM | > 100 µM | 82.3 µM | > 100 µM | > 100 µM | > 100 µM | > 100 µM | > 100 µM |  |  |
| O=C(OCC1OC(c2nn[nH]n2)C(OC(=O)c2ccccc2)C1OC(=O)c1ccccc1)c1ccccc1 (stereo not given) | > 100 µM | > 100 µM |  | > 100 µM | > 100 µM | > 100 µM | > 100 µM | > 100 µM | > 100 µM | > 100 µM | > 100 µM | > 100 µM | > 100 µM | > 100 µM |  |
| CCOC(=O)NC(NC(C)CC)(C(F)(F)F)C(F)(F)F (stereo not given) | > 100 µM | > 100 µM | > 100 µM | > 100 µM |  | > 100 µM | > 100 µM | > 100 µM | > 100 µM | > 100 µM | > 100 µM | > 100 µM | > 100 µM | > 100 µM | > 100 µM |
| CCOC(=O)C1=c2[nH]c3cccc4cccc(c43)n2C=C(C(C)=O)C1CC(C)=O (stereo not given) | > 100 µM | > 100 µM | > 100 µM | > 100 µM | > 100 µM |  | > 100 µM | > 100 µM | > 100 µM | > 100 µM | > 100 µM | > 100 µM |  |  |  |
| COc1ccc(O)c(C=NCCCN=Cc2cc(OC)ccc2O)c1 | > 100 µM | > 100 µM |  | 83.5 µM |  |  | 65 µM | 95.2 µM |  | 37.3 µM | > 100 µM | 74.7 µM |  | > 100 µM | 68 µM |
| COC(=O)CCn1cnc2c(SC)ncnc21 | > 100 µM | > 100 µM | > 100 µM | > 100 µM |  | > 100 µM | > 100 µM | > 100 µM | > 100 µM | > 100 µM | > 100 µM | > 100 µM | > 100 µM | > 100 µM | > 100 µM |
| N#CCCN(CCC#N)c1ccc(/C=C2\N=C(c3ccccc3)N(c3ccccn3)C2=O)cc1 | > 100 µM | > 100 µM | > 100 µM | > 100 µM |  | > 100 µM | > 100 µM | > 100 µM | > 100 µM | > 100 µM | > 100 µM | > 100 µM | > 100 µM | > 100 µM | > 100 µM |
| O=C1CC2(CCNCC2)C(=O)N1N1CCCC1 | > 100 µM | > 100 µM | > 100 µM | > 100 µM | > 100 µM | > 100 µM |  | > 100 µM | > 100 µM | > 100 µM |  | > 100 µM |  | > 100 µM |  |
| COP1(=O)Oc2ccccc2C(=O)C(C(F)(F)F)(C(F)(F)F)O1 (stereo not given) | > 100 µM | > 100 µM |  | > 100 µM | > 100 µM | > 100 µM | > 100 µM | > 100 µM | > 100 µM |  | > 100 µM | > 100 µM | > 100 µM | > 100 µM |  |
| CC(NC(=O)OC(C)(C)C)C(=O)C(N)=O (stereo not given) | > 100 µM | > 100 µM | > 100 µM | > 100 µM | > 100 µM | > 100 µM | > 100 µM |  |  |  |  | > 100 µM | > 100 µM |  | > 100 µM |
| O=C(NCCO)Nc1c(C(F)(F)F)cc(-c2ccccc2)[nH]c1=O | > 100 µM | > 100 µM | > 100 µM | > 100 µM | > 100 µM |  | > 100 µM | > 100 µM | > 100 µM | > 100 µM | > 100 µM | > 100 µM |  | > 100 µM |  |
| c1ccc(/N=N/Nc2ccc(-c3nc4ccccc4[nH]3)cc2)nc1 | 30.2 µM | 84.1 µM | 26 µM | 35.8 µM |  | 31.3 µM | 40.5 µM | 32.5 µM | 61.3 µM | 28.2 µM | 35.8 µM | 11.6 µM |  | 45.2 µM | 43 µM |
| CC(C)OP(=O)(OC(C)C)C(=Nc1ccccc1)NNc1ccc([N+](=O)[O-])cc1 | > 100 µM | > 100 µM |  | > 100 µM | > 100 µM | > 100 µM | 40.2 µM |  | > 100 µM | > 100 µM | > 100 µM | 70.4 µM | > 100 µM |  |  |
| O=c1[nH]nc(Cc2ccc(Cl)cc2)n1/N=C\c1ccc(/C=N/n2c(Cc3ccc(Cl)cc3)n[nH]c2=O)cc1 | 57.5 µM | > 100 µM | > 100 µM | > 100 µM |  |  | > 100 µM | > 100 µM | > 100 µM | > 100 µM | > 100 µM | > 100 µM | > 100 µM | > 100 µM | > 100 µM |
| Cc1[nH]c(=O)nc(NCCNCCO)c1C(=O)Nc1c2ccccc2nc2ccccc12 | > 100 µM | > 100 µM | > 100 µM | > 100 µM | > 100 µM | > 100 µM | > 100 µM | > 100 µM | > 100 µM | > 100 µM | > 100 µM | > 100 µM |  | > 100 µM |  |
| COc1nc2sc3c(c2c(=O)n1CCCSSCCCn1c(OC)nc2sc4c(c2c1=O)CCCC4)CCCC3 | > 100 µM | > 100 µM | > 100 µM | > 100 µM | > 100 µM | > 100 µM | > 100 µM | > 100 µM | > 100 µM |  | > 100 µM | > 100 µM |  | > 100 µM |  |
| CCCCCCCC(=O)NC(C)(C)C(=O)NC(COC(C)(C)C)C(=O)NC(CC(C)C)C(=O)NC(C)(C)C(=O)NC(COC(C)(C)C)C(=O)NC(COC(C)(C)C)C(=O)NC(CC(C)C)C(=O)NC(C)(C)C(=O)NC(COC(C)(C)C)C(=O)NC(C(=O)NC(CC(C)C)C(=O)OC)C(C)CC (stereo not given) (Octanoyl-[Aib]S(tBu)L[Aib]S(tBu)S(tBu)L[Aib]S(tBu)IL-OMe; configuration not given here) | > 25 µM | 22.3 µM | 23.5 µM | 24.9 µM |  | > 25 µM | 10.6 µM | 9.99 µM | > 25 µM | 10.9 µM | > 25 µM | 11.2 µM | > 25 µM | 11.9 µM | > 25 µM |
